Results on 4 molecules are retold here after patent US20160271513A1, “DRYING TECHNIQUES FOR MICROFLUIDIC AND OTHER SYSTEMS” (PRESIDENT AND FELLOWS OF HARVARD COLLEGE, priority 2013, published 2016).

Data set [1] can be described thus: Structure and storage stability of spray-dried drug nanoparticles by X-ray diffraction. It is filed as physicochemical. As for the experimental part:
While the characteristic size below which particles were entirely amorphous is system-specific, the suppression of nucleation in small droplets relies on a generally applicable physical principle. […] To test this expectation, the structure of spray-dried clotrimazole, estradiol, and danazol was examined using X-ray diffraction (XRD). To keep the nucleation time the same, they were dissolved at 10% of their saturation concentration. In agreement with the above, these spray-dried drug nanoparticles were amorphous.
Production of amorphous drugs may require the addition of excipients. However, despite the presence of excipients, these drugs tend to crystallize with time leading to a change in their dissolution kinetics; this prevents their application in industry. […] These drugs all had glass transition temperatures, Tg, above room temperature; they were therefore glasses at room temperature.
XRD. X-ray diffraction was performed on spray-dried nanoparticles collected onto a one-side polished (100) Si wafer for 11 h. Measurements were acquired on a XDS2000 instrument (Scintac Inc.) using a Cu Kα (K alpha) source with a wavelength λ=0.154056 nm. The angle 2θ was varied between 2 and 70° at a rate of 1°/min.
It was expected to crystallize over time if stored at room temperature even if it is initially fully amorphous.
To test if the nebulator also allowed production of amorphous nanoparticles from materials with a Tg […] room temperature, which would be a glass at room temperature, clotrimazole, estradiol, and danazol, all poorly water soluble drugs with Tgs above 20° C., were spry dried. The size of the spray dried nanoparticles was determined by the initial solute concentration and the initial drop size. To ensure similar sizes of the spray dried nanoparticles, the initial solute concentration was fixed to 5 mg/ml. […] Thus, the nebulator allowed formulation of poorly water soluble drugs as amorphous nanoparticles.
To ease the handling drugs, fenofibrate was co-spray dried with different types of excipients. […] Four different types of Pluronics were compared: F68 and F127 are solids at room temperature and Pluronics P84 and P104 are pastes at room temperature.
By analogy to Pluronics, drugs spray dried from solutions containing equal weights of drugs and excipients were crystalline. By contrast, increasing the weight fraction of PVP five-fold results in XRD-amorphous danazol nanoparticles, in agreement to danazol nanoparticles formulated using the microfluidic spray drier.
To maintain the stability of spray dried amorphous nanoparticles and facilitate their handling by embedding them in an excipient matrix, PVP was deposited on a Si-wafer and subsequently drugs were spray dried into the PVP matrix. […] However, because excipients were not required to make the drug amorphous but rather to ease their handling, this procedure is generally applicable to the formulation of many different types of drugs, by contrast to the solid dispersions where the appropriate excipients must be selected for each system individually. Thus, the nebulator used in this example allowed the formulation of amorphous drug nanoparticles that optionally could be sprayed into an excipient matrix to facilitate their handling.

For data set [2] the following is noted: room temperature.
Protocol: To calculate the time available for crystalline nuclei to form, the saturation concentration of NaCl was measured in water at room temperature to be 6.3 mol/l.
Data set [3] in a line: Crystalline fraction of spray-dried nanoparticles by differential scanning calorimetry. It is filed as physicochemical. As for the experimental part: The size of inorganic nanoparticles can influence their structure.
DSC. Differential scanning calorimetry was performed on spray-dried nanoparticles that are collected in an aluminium based Tzero DSC pan. To obtain sufficient amounts of samples, nanoparticles were collected for 11 h before being sealed in the DSC pan with a Tzero Hermetic Lid (TA Instruments). DSC was measured on a DSC Q200 at a nitrogen flow rate of 50 ml/min (TA instruments); the temperature was increased from 40° C. to 85° C. at a rate of 1° C./min and subsequently the sample was cooled to 25° C. at the same rate. To quantify the amount of nanoparticles, thermogravimetry analysis (TGA) was performed on these samples after completing the DSC analysis. For this, the hermetically sealed pans were opened and TGA was performed on these samples by increasing the temperature from 25° C. to 400° C. at a rate of 10° C./min under a N2 flow of 10 ml/min (Q5000, TA instrument). The absolute mass loss was measured between 100° C. and 300° C. and the DSC data was normalized accordingly.
On the technique in general: DSC measures the heat that a sample takes up or gives off during a temperature scan.

The mark [4] stands for this setting: spray-dried from ethanol without excipients, 0.28 MPa.
[5] abbreviates: spray-dried without excipients, stored under ambient conditions.

In the case of `C#C[C@]1(O)CC[C@H]2[C@@H]3CCC4=Cc5oncc5C[C@]4(C)[C@H]3CC[C@@]21C` [danazol], the “structure of spray-dried nanoparticles (XRD)” value in data set [1] (co-spray dried with PVP, PVP five times the drug) is listed as “XRD-amorphous”; in data set [1] (co-spray dried with Pluronics F68, F127, P84 or P104, equal weights), “contain a significant fraction of crystalline regions”; in data set [1] (pure drug spray dried onto a PVP matrix) it was “XRD-amorphous”; in data set [1] (setting [4]), “amorphous”. The crystallization on storage entry was “this fraction markedly increases after storing the sample for two weeks under ambient conditions” in data set [1] (co-spray dried with equal weight of Pluronics (F68, F127, P84, P104), two weeks under ambient conditions) and “did not crystallize if stored under ambient conditions for at least four weeks” in data set [1] (setting [5]).
On to `[Cl-].[Na+]` [NaCl], for which, in data set [2], the “saturation concentration of NaCl in water” value was found to be 6.3 mol/L.
On to `CC(C)OC(=O)C(C)(C)Oc1ccc(C(=O)c2ccc(Cl)cc2)cc1` [fenofibrate], for which the results for the “crystalline fraction from area of the melting peak” value in data set [3] (25 nm large particles) and in data set [3] (particles with a diameter of 20 nm) were 6 vol % and 3 vol %, respectively.
Turning to `Clc1ccccc1C(c1ccccc1)(c1ccccc1)n1ccnc1` [clotrimazole], the “structure of spray-dried nanoparticles (XRD)” value in data set [1] (setting [4]) was “amorphous”. For the same molecule, the crystallization on storage entry in data set [1] (setting [5]) is recorded as “did not crystallize if stored under ambient conditions for at least four weeks”.
